Source: ChEMBL document CHEMBL1147541, “Synthesis of fluorinated cyclopentenyladenine as potent inhibitor of S-adenosylhomocysteine hydrolase” (Bioorg Med Chem Lett, 2004)

These compounds were tested against Adenosylhomocysteinase (Homo sapiens, UniProt P23526) (assay: In vitro inhibitory activity against recombinant S-adenosyl-L-homocysteine hydrolase obtained from human placenta).
Sequence of Adenosylhomocysteinase (P23526 whole entry): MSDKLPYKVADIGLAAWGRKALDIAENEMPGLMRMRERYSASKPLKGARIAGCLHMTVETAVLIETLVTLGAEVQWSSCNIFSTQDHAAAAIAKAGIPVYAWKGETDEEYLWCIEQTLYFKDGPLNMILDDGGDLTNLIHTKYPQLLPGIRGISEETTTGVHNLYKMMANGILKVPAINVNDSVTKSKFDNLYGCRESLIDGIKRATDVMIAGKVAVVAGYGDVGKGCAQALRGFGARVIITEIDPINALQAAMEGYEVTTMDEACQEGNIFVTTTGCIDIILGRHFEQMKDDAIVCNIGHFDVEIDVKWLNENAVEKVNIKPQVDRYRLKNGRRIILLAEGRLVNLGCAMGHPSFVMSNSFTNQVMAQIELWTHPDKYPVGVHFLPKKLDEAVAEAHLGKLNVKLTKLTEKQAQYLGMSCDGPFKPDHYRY

SMILES	IC50
Nc1ncnc2c1ncn2[C@@H]1C=C[C@@H](O)[C@H]1O	8.7 µM
Nc1ncnc2c1ncn2[C@@H]1C(F)=C(CO)[C@@H](O)[C@H]1O [FLUORO-NEPLANOCIN A]	0.47 µM
Nc1ncnc2c1ncn2[C@@H]1C=C(CO)[C@@H](O)[C@H]1O [NEOPLANOCIN A]	0.89 µM
Nc1ncnc2c1ncn2[C@@H]1C(F)=C[C@@H](O)[C@H]1O	8.9 µM
